Consider one compound from patent publication US20160318866A1, “SUBSTITUTED BIPIPERIDINYL DERIVATIVES” (Bayer Pharma Aktiengesellschaft, priority 2013, published 2016).

The subject of this data set is adult female Wistar rats. The data set is described as follows: Radiotelemetric measurement of blood pressure and heart rate of conscious rats. The class given is in vivo, rat. To be noted: 5 and 15 mg/kg, oral, telemetry over 24 hours. The text has this:
A commercially available telemetry system from Data Sciences International DSI, USA, was employed for the measurements on conscious rats described below. The system consists of 3 main components: (1) implantable transmitters (Physiotel® telemetry transmitter), (2) receivers (Physiotel® receiver), which are linked via a multiplexer (DSI Data Exchange Matrix) to a (3) data acquisition computer. The telemetry system makes it possible to continuously record blood pressure, heart rate and body motion of conscious animals in their usual habitat.
The studies were conducted on adult female Wistar rats with a body weight of >200 g. After transmitter implantation, the experimental animals were housed singly in type III Makrolon® cages. They had free access to standard feed and water. The day/night rhythm in the test laboratory was set by changing the illumination of the room.
The telemetry transmitters used (PA-C40, DSI) were surgically implanted under aseptic conditions in the experimental animals at least 14 days before the first experimental use.
For the implantation, the fasted animals were anaesthetized with isoflurane (IsoFlo®, Abbott, initiation 5%, maintenance 2%) and shaved and disinfected over a large area of their abdomens. […]
Each of the instrumented rats living in the system was assigned a separate receiving antenna (RPC-1 Receiver, DSI). […] The signals emitted were detected online by a data acquisition system (Dataquest™ A.R.T. for Windows, DSI) and processed accordingly.
In the standard procedure, the following were measured for 10-second periods in each case: (1) systolic blood pressure (SBP), (2) diastolic blood pressure (DBP), (3) mean arterial pressure (MAP), (4) heart rate (HR) and (5) activity (ACT). These parameters were measured over 24 hours after administration.
The acquisition of measurements was repeated under computer control at 5-minute intervals. The source data obtained as absolute values were corrected in the diagram with the currently measured barometric pressure (Ambient Pressure Reference Monitor, APR-1, DSI). […]

For `CC1CCCN(C2CCN(C(=O)c3ccc(C(C)(C)O)cc3)CC2)C1` (single isomer, unassigned) [Example 8, [4-(1-Hydroxy-1-methylethyl)phenyl)](3-methyl-1,4′-bipiperidin-1′-yl)methanone, (−)-enantiomer], the blood pressure entry is listed as “without any effect on blood pressure” and the heart rate result is given as “slight transient increase of the heart rate”.
